Results reported in PMC11855478, “Bicyclic N,S-Acetals Containing Fused Cysteine-Amide System as New Heterocyclic Class Targeting Human Farnesyltransferase (FTase-h)” (International Journal of Molecular Sciences, 2025).

What was measured:
Type in all cases: cell-based, human
HCC-2998 (Colon Cancer) = test: NCI one dose, HCC-2998; conditions: HCC-2998, 1.00E-5 Molar one dose
Method: (§1) 3.4. Cell Proliferation Assay
(§2) Selected compounds were tested on a panel of 60 human cancer cell lines at the National Cancer Institute (NCI), Germantown, MD, USA. The cytotoxicity studies were conducted using a 48 h exposure protocol using the sulfo-rhodamine B assay.

[1] = system: NCI-H322M (Non-Small Cell Lung Cancer); test: NCI one dose, NCI-H322M; conditions: 1.00E-5 Molar one dose
Method: as §1, §2

OVCAR-4 (Ovarian Cancer) = test: NCI one dose, OVCAR-4; conditions: OVCAR-4, 1.00E-5 Molar one dose
Method: as §1, §2

U251 (CNS Cancer) = test: NCI one dose, U251; conditions: U251, 1.00E-5 Molar one dose
Method: as §1, §2

A498 (Renal Cancer) = test: NCI one dose, A498; conditions: A498, 1.00E-5 Molar one dose
Method: as §1, §2

HS 578T (Breast Cancer) = test: NCI one dose, HS 578T; conditions: 1.00E-5 Molar one dose
Method: as §1, §2

LOX IMVI (Melanoma) = test: NCI one dose, LOX IMVI; conditions: 1.00E-5 Molar one dose
Method: as §1, §2

DU-145 (Prostate Cancer) = test: NCI one dose, DU-145; conditions: DU-145, 1.00E-5 Molar one dose
Method: as §1, §2

CAKI-1 (Renal Cancer) = test: NCI one dose, CAKI-1; conditions: CAKI-1, 1.00E-5 Molar one dose
Method: as §1, §2

[2] = system: A549/ATCC (Non-Small Cell Lung Cancer); test: NCI one dose, A549/ATCC; conditions: 1.00E-5 Molar one dose
Method: as §1, §2

RPMI-8226 (Leukemia) = test: NCI one dose, RPMI-8226; conditions: RPMI-8226, 1.00E-5 Molar one dose
Method: as §1, §2

K-562 leukaemia cells = test: NCI one dose, K-562; conditions: K-562, 1.00E-5 Molar one dose
Method: as §1, §2

HCT-116 (Colon Cancer) = test: NCI one dose, HCT-116; conditions: HCT-116, 1.00E-5 Molar one dose
Method: as §1, §2

786-0 (Renal Cancer) = test: NCI one dose, 786-0; conditions: 786-0, 1.00E-5 Molar one dose
Method: as §1, §2

[3] = system: NCI-H23 (Non-Small Cell Lung Cancer); test: NCI one dose, NCI-H23; conditions: NCI-H23, 1.00E-5 Molar one dose
Method: as §1, §2

SK-MEL-2 (Melanoma) = test: NCI one dose, SK-MEL-2; conditions: SK-MEL-2, 1.00E-5 Molar one dose
Method: as §1, §2

CCRF-CEM (Leukemia) = test: NCI one dose, CCRF-CEM; conditions: 1.00E-5 Molar one dose
Method: as §1, §2

SF-268 (CNS Cancer) = test: NCI one dose, SF-268; conditions: SF-268, 1.00E-5 Molar one dose
Method: as §1, §2

[4] = system: NCI/ADR-RES (Ovarian Cancer); test: NCI one dose, NCI/ADR-RES; conditions: 1.00E-5 Molar one dose
Method: as §1, §2

IGROV1 (Ovarian Cancer) = test: NCI one dose, IGROV1; conditions: IGROV1, 1.00E-5 Molar one dose
Method: as §1, §2

PC-3 (Prostate Cancer) = test: NCI one dose, PC-3; conditions: PC-3, 1.00E-5 Molar one dose
Method: as §1, §2

[5] = system: EKVX (Non-Small Cell Lung Cancer); test: NCI one dose, EKVX; conditions: 1.00E-5 Molar one dose
Method: as §1, §2

[6] = system: HOP-92 (Non-Small Cell Lung Cancer); test: NCI one dose, HOP-92; conditions: HOP-92, 1.00E-5 Molar one dose
Method: as §1, §2

M14 (Melanoma) = test: NCI one dose, M14; conditions: M14, 1.00E-5 Molar one dose
Method: as §1, §2

MDA-MB-435 (Melanoma) = test: NCI one dose, MDA-MB-435; conditions: MDA-MB-435, 1.00E-5 Molar one dose
Method: as §1, §2

KM12 (Colon Cancer) = test: NCI one dose, KM12; conditions: KM12, 1.00E-5 Molar one dose
Method: as §1, §2

SF-295 (CNS Cancer) = test: NCI one dose, SF-295; conditions: SF-295, 1.00E-5 Molar one dose
Method: as §1, §2

UO-31 renal cancer cells = test: NCI one dose, UO-31; conditions: UO-31, 1.00E-5 Molar one dose
Method: as §1, §2

SW-620 (Colon Cancer) = test: NCI one dose, SW-620; conditions: SW-620, 1.00E-5 Molar one dose
Method: as §1, §2

OVCAR-8 (Ovarian Cancer) = test: NCI one dose, OVCAR-8; conditions: OVCAR-8, 1.00E-5 Molar one dose
Method: as §1, §2

SK-MEL-28 (Melanoma) = test: NCI one dose, SK-MEL-28; conditions: SK-MEL-28, 1.00E-5 Molar one dose
Method: as §1, §2

[7] = system: MDA-MB-231/ATCC (Breast Cancer); test: NCI one dose, MDA-MB-231/ATCC; conditions: 1.00E-5 Molar one dose
Method: as §1, §2

MALME-3M (Melanoma) = test: NCI one dose, MALME-3M; conditions: 1.00E-5 Molar one dose
Method: as §1, §2

SNB-75 (CNS Cancer) = test: NCI one dose, SNB-75; conditions: SNB-75, 1.00E-5 Molar one dose
Method: as §1, §2

RXF 393 (Renal Cancer) = test: NCI one dose, RXF 393; conditions: RXF 393, 1.00E-5 Molar one dose
Method: as §1, §2

MCF7 (Breast Cancer) = test: NCI one dose, MCF7; conditions: MCF7, 1.00E-5 Molar one dose
Method: as §1, §2

SMILES | Growth Percent (HCC-2998 (Colon Cancer)) | Growth Percent [1] | Growth Percent (OVCAR-4 (Ovarian Cancer)) | Growth Percent (U251 (CNS Cancer)) | Growth Percent (A498 (Renal Cancer)) | Growth Percent (HS 578T (Breast Cancer)) | Growth Percent (LOX IMVI (Melanoma)) | Growth Percent (DU-145 (Prostate Cancer)) | Growth Percent (CAKI-1 (Renal Cancer)) | Growth Percent [2] | Growth Percent (RPMI-8226 (Leukemia)) | Growth Percent (K-562 leukaemia cells) | Growth Percent (HCT-116 (Colon Cancer)) | Growth Percent (786-0 (Renal Cancer)) | Growth Percent [3] | Growth Percent (SK-MEL-2 (Melanoma)) | Growth Percent (CCRF-CEM (Leukemia)) | Growth Percent (SF-268 (CNS Cancer)) | Growth Percent [4] | Growth Percent (IGROV1 (Ovarian Cancer)) | further results
COc1ccc(CNC(=O)[C@@H]2CS[C@H]3c4ccccc4C(=O)N23)cc1 [4aF] | 114.93% | 88.19% | 110.64% | 98.53% | 105.77% | 104.20% | 100.31% | 116.46% | 97.50% | 95.62% | 101.90% | 99.90% | 101.21% | 97.97% | 108.19% | 118.58% | 97.27% | 101.17% | 103.64% | 93.78% | Growth Percent (PC-3 (Prostate Cancer)): 90.27%; Growth Percent [5]: 106.31%; Growth Percent [6]: 86.03%; Growth Percent (M14 (Melanoma)): 99.91%; Growth Percent (MDA-MB-435 (Melanoma)): 114.08%; Growth Percent (KM12 (Colon Cancer)): 100.55%; Growth Percent (SF-295 (CNS Cancer)): 95.57%; Growth Percent (UO-31 renal cancer cells): 75.18%; Growth Percent (SW-620 (Colon Cancer)): 105.03%; Growth Percent (OVCAR-8 (Ovarian Cancer)): 99.52%; Growth Percent (SK-MEL-28 (Melanoma)): 102.14%; Growth Percent [7]: 107.73%; Growth Percent (MALME-3M (Melanoma)): 100.21%; Growth Percent (SNB-75 (CNS Cancer)): 114.38%; Growth Percent (RXF 393 (Renal Cancer)): 117.51%; Growth Percent (MCF7 (Breast Cancer)): 85.78%
COc1cc(CNC(=O)[C@@H]2CS[C@H]3c4ccccc4C(=O)N23)cc(OC)c1OC [4aJ] | 113.62% | 107.00% | 104.76% | 104.21% | 100.74% | 101.31% | 99.61% | 113.37% | 95.05% | 98.15% | 95.00% | 90.55% | 92.64% | 90.66% | 100.31% | 95.25% | 96.01% | 104.63% | 95.00% | 102.86% | Growth Percent (PC-3 (Prostate Cancer)): 87.87%; Growth Percent [5]: 101.46%; Growth Percent [6]: 93.68%; Growth Percent (M14 (Melanoma)): 94.92%; Growth Percent (MDA-MB-435 (Melanoma)): 106.49%; Growth Percent (KM12 (Colon Cancer)): 103.41%; Growth Percent (SF-295 (CNS Cancer)): 107.19%; Growth Percent (UO-31 renal cancer cells): 84.08%; Growth Percent (SW-620 (Colon Cancer)): 104.14%; Growth Percent (OVCAR-8 (Ovarian Cancer)): 103.46%; Growth Percent (SK-MEL-28 (Melanoma)): 109.82%; Growth Percent [7]: 84.71%; Growth Percent (MALME-3M (Melanoma)): 105.79%; Growth Percent (SNB-75 (CNS Cancer)): 86.61%; Growth Percent (RXF 393 (Renal Cancer)): 110.79%; Growth Percent (MCF7 (Breast Cancer)): 104.04%
